Source: paper PMC9271048, “Probing strigolactone perception mechanisms with rationally designed small-molecule agonists stimulating germination of root parasitic weeds” (Nature Communications, 2022)

Key:
ShHTL7 F134K = ShHTL7 F134K (Striga hermonthica, UniProt A0A0M3PNA2, F134K); test: YLG competitive inhibition, ShHTL7 mutant F134K; format: biochemical
From the text: (§1) To clarify the dynamics of how the catalytic triad affects hydrolysis by ShHTL7, we performed MD simulations to study the differences between (R)-4a and (S)-4a (Supplementary Fig. 21). […] To further characterize our computational models, we performed mutation studies of the key residues in the active pockets that may have interactions with our molecules. Indeed, a number of the mutations of specific residues altered the IC50 values, supporting our simulated models (Supplementary Fig. 20b).
(§2) The excitation and emission wavelengths of YLG are 480 and 520 nm, respectively. We used a fluorescence spectrophotometer (CARY Eclipse) to detect the fluorescence intensity change of YLG during the enzymatic hydrolysis assay process. All the testing compounds and YLG were dissolved in DMSO and prepared as stock solutions just before use. […] The changes of fluorescence at 520 nm of each well were recorded every 1 min for 30 min. Using the reaction mixture without adding enzyme and tested compounds as the background control. After subtracting the background hydrolysis, a linear fluorescence increase in 8 min was used for further inspection. The IC50 values were determined via fitting relative inhibition percentages with the varying concentrations of compounds in Microsoft Excel.
(§3) Supplementary Fig. 20. […]

ShHTL7 T142L = ShHTL7 T142L (Striga hermonthica, UniProt A0A0M3PNA2, T142L); test: YLG competitive inhibition, ShHTL7 mutant T142L; format: biochemical
From the text: as §1, §2, §3

ShHTL7 T142K = ShHTL7 T142K (Striga hermonthica, UniProt A0A0M3PNA2, T142K); test: YLG competitive inhibition, ShHTL7 mutant T142K; format: biochemical
From the text: as §1, §2, §3

ShHTL7 T124K = ShHTL7 T124K (Striga hermonthica, UniProt A0A0M3PNA2); test: YLG competitive inhibition, ShHTL7 mutant T124K; format: biochemical; settings: read-out: IC50 (YLG), ShHTL7 mutant, source data average, Supplementary Fig. 20b
From the text: as §1, §2, §3

ShHTL7 F134A = ShHTL7 F134A (Striga hermonthica, UniProt A0A0M3PNA2, F134A); test: YLG competitive inhibition, ShHTL7 mutant F134A; format: biochemical
From the text: as §1, §2, §3

ShHTL7 T190G = ShHTL7 T190G (Striga hermonthica, UniProt A0A0M3PNA2, T190G); test: YLG competitive inhibition, ShHTL7 mutant T190G; format: biochemical
From the text: as §1, §2, §3

ShHTL7 M219V = ShHTL7 M219V (Striga hermonthica, UniProt A0A0M3PNA2, M219V); test: YLG competitive inhibition, ShHTL7 mutant M219V; format: biochemical
From the text: as §1, §2, §3

ShHTL7 T157A = ShHTL7 T157A (Striga hermonthica, UniProt A0A0M3PNA2, T157A); test: YLG competitive inhibition, ShHTL7 mutant T157A; format: biochemical
From the text: as §1, §2, §3

ShHTL7 L161M = ShHTL7 L161M (Striga hermonthica, UniProt A0A0M3PNA2, L161M); test: YLG competitive inhibition, ShHTL7 mutant L161M; format: biochemical
From the text: as §1, §2, §3

ShHTL7 T190F = ShHTL7 T190F (Striga hermonthica, UniProt A0A0M3PNA2, T190F); test: YLG competitive inhibition, ShHTL7 mutant T190F; format: biochemical
From the text: as §1, §2, §3

ShHTL7 L161A = ShHTL7 L161A (Striga hermonthica, UniProt A0A0M3PNA2, L161A); test: YLG competitive inhibition, ShHTL7 mutant L161A; format: biochemical
From the text: as §1, §2, §3

ShHTL7 T121S = ShHTL7 T121S (Striga hermonthica, UniProt A0A0M3PNA2, T121S); test: YLG competitive inhibition, ShHTL7 mutant T121S; format: biochemical
From the text: as §1, §2, §3

ShHTL7S95A = test: Hydrolysis reaction analysis with ShHTL7 S95A mutant; format: biochemical, Striga hermonthica; settings: Supplementary Figs. 20a, 24a
Description: Compounds 4a, (R)- and (S)-4a, 4g-i, and rac-GR24 were dissolved in DMSO and prepared as stock solution ([…]) just before use. A 200 μL of the reaction solution consisting of PBS buffer (pH 7.3), 10 μM samples, and 10 μg recombinant ShHTL7 or its mutants was incubated at 30 °C for 30 min; with the reaction solution (200 μL) containing PBS buffer (pH 7.3) and 10 μM samples as the blank control[40],[52]. Subsequently, the reaction was terminated by adding 200 μL of methanol, and then the reaction mixture was shaken for 10 s and centrifuged at 5310 × g for 60 s. The supernatant was filtered and the remaining amount of samples was analyzed by HPLC. The relative percentages of hydrolysis were obtained by using the amount of compounds in blank control as reference.
Supplementary Fig. 20. Effect of key amino acid residues on the hydrolysis of ShHTL7 and binding affinity. a, Relative percentage of hydrolysis of compound (S)-4a by ShHTL7S95A, ShHTL7H246A, and ShHTL7. The error bar indicates SD (n = 3 biologically independent experiments). b, Competitive mutants of ShHTL7 inhibitory activity in YLG assay. Data are the means ± SD (n = 3 biologically independent experiments).
(1 picture or pasted object on this page, not shown here) […]

ShHTL7 = ShHTL7 (Striga hermonthica, UniProt A0A0M3PNA2); set-up: method as in PMID 30021834; settings: microscale thermophoresis measurements; cited from earlier work
Chain of ShHTL7 (A0A0M3PNA2 entry or part of it): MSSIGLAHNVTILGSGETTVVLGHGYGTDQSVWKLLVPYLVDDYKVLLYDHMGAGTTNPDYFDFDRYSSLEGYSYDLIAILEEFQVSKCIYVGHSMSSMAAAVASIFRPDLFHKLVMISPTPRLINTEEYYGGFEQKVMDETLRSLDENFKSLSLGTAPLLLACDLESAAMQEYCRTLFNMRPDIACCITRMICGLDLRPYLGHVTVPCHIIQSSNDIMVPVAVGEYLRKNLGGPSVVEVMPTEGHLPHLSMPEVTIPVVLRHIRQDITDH

Chain of ShHTL7 M219V (A0A0M3PNA2 whole entry M219V): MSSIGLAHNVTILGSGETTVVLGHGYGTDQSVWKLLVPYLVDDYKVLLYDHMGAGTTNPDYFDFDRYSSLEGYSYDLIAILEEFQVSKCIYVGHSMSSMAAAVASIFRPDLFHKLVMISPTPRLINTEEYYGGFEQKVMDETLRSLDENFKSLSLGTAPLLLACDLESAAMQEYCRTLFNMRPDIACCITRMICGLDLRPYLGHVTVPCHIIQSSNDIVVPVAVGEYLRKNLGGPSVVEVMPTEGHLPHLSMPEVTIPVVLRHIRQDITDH
Chain of ShHTL7 T142L (A0A0M3PNA2 whole entry T142L): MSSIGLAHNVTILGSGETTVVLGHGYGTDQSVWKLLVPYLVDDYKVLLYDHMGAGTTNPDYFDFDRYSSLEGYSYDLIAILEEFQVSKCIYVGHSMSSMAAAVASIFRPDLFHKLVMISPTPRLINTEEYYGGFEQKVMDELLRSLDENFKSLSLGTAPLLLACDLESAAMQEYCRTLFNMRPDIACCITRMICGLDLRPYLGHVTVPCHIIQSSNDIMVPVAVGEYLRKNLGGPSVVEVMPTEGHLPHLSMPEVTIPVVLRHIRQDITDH
Chain of ShHTL7 T157A (A0A0M3PNA2 whole entry T157A): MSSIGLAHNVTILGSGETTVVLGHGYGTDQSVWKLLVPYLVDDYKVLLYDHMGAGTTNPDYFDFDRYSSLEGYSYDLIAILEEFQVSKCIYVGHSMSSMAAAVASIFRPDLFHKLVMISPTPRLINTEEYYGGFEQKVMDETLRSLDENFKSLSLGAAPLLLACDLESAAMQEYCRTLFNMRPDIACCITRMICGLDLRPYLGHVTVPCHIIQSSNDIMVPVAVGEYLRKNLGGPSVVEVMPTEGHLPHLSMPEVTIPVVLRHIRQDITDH
Chain of ShHTL7 T121S (A0A0M3PNA2 whole entry T121S): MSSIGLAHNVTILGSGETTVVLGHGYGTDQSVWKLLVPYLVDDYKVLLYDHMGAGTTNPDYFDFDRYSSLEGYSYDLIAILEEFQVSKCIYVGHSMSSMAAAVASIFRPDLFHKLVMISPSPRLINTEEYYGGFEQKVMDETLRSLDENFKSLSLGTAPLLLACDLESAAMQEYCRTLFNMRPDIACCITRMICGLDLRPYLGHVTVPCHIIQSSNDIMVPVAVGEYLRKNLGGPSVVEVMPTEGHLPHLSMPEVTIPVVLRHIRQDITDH
Chain of ShHTL7 F134K (A0A0M3PNA2 whole entry F134K): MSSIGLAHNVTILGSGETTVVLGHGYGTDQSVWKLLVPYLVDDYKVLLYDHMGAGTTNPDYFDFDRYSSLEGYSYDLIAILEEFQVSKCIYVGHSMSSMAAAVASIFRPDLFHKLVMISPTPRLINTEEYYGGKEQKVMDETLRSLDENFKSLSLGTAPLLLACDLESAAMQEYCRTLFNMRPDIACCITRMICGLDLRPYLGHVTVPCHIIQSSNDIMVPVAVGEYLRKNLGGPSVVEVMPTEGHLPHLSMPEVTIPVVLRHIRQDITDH
Chain of ShHTL7 T124K (A0A0M3PNA2 entry or part of it, stated change not applied): as the sequence (A0A0M3PNA2 entry or part of it) above
Chain of ShHTL7 T190G (A0A0M3PNA2 whole entry T190G): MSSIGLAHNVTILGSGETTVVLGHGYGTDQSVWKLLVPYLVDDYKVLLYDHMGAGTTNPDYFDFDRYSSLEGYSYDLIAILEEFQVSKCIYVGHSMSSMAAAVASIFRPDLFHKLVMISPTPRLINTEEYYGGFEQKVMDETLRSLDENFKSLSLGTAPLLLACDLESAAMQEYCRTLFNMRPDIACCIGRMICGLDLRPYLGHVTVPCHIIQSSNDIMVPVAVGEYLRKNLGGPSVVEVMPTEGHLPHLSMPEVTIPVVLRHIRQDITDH
Chain of ShHTL7 L161A (A0A0M3PNA2 whole entry L161A): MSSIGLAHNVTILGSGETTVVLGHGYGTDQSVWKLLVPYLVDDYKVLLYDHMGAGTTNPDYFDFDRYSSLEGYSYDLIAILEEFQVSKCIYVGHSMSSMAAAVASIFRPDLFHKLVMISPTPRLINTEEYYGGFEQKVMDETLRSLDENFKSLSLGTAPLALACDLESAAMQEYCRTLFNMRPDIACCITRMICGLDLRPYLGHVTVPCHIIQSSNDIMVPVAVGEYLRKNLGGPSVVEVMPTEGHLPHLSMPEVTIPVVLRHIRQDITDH
Chain of ShHTL7 T190F (A0A0M3PNA2 whole entry T190F): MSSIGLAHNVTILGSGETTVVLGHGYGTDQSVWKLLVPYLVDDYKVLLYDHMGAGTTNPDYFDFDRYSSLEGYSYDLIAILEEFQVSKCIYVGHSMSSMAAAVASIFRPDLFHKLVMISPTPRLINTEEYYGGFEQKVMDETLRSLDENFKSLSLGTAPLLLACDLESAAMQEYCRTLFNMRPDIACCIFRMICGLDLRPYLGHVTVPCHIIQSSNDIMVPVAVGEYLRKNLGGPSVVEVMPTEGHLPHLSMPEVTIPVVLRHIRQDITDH
Chain of ShHTL7 T142K (A0A0M3PNA2 whole entry T142K): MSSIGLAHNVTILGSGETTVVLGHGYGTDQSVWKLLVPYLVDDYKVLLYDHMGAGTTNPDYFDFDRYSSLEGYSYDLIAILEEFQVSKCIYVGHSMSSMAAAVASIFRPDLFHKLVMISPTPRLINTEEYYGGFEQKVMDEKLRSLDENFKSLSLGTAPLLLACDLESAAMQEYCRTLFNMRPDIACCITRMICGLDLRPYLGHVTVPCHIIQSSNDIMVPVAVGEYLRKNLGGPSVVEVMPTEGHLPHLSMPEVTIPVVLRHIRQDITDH
Chain of ShHTL7 L161M (A0A0M3PNA2 whole entry L161M): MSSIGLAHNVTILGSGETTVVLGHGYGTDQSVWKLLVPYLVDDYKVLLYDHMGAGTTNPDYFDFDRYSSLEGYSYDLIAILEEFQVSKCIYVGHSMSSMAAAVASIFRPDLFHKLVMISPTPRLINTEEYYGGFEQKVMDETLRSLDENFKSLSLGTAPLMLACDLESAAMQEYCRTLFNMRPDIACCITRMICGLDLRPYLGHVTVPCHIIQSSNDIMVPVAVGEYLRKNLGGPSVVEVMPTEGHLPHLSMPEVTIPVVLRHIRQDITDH
Chain of ShHTL7 F134A (A0A0M3PNA2 whole entry F134A): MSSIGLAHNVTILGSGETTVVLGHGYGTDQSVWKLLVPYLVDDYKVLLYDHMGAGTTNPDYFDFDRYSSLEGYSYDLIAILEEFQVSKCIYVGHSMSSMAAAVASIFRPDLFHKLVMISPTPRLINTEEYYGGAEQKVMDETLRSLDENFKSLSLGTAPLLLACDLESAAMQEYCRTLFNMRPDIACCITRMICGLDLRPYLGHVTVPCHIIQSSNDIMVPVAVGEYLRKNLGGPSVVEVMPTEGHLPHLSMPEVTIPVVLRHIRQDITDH

Structure (SMILES)	IC50 (ShHTL7 F134K) [nM]	IC50 (ShHTL7 T142L) [nM]	IC50 (ShHTL7 T142K) [nM]	IC50 (ShHTL7 T124K) [nM]	IC50 (ShHTL7 F134A) [nM]	IC50 (ShHTL7 T190G) [nM]	IC50 (ShHTL7 M219V) [nM]	IC50 (ShHTL7 T157A) [nM]	IC50 (ShHTL7 L161M) [nM]	IC50 (ShHTL7 T190F) [nM]	IC50 (ShHTL7 L161A) [nM]	IC50 (ShHTL7 T121S) [nM]	relative percentage of hydrolysis by ShHTL7S95A, source data average (ShHTL7S95A) [%]	Kd (ShHTL7) [nM]
CC1=C[C@@H](OC(=O)N2CCN(C(=O)COc3ccc(Br)cc3C)CC2)OC1=O [(R)-4a]	62100	1880	4130	1000	58100	26400	22000	2610	34300	4690	100000	4900	–	–
CC1=CC(OC(=O)N2CCN(C(=O)COc3ccc(Br)cc3C)CC2)CC1=O (stereo not drawn) [4g]	–	–	–	–	–	–	–	–	–	–	–	–	3.871	–
CC1=C[C@H](OC(=O)N2CCN(C(=O)COc3ccc(Br)cc3C)CC2)OC1=O [(S)-4a]	613	300	203	435	531	575	347	170	666	1070	155	800	1.485	–
CC1=C[C@H](O/C=C2/C(=O)O[C@@H]3c4ccccc4C[C@H]23)OC1=O (racemic) [rac-GR24, reference compound]	–	–	–	–	–	–	–	–	–	–	–	–	–	920 ± 10
